Assay results reported in patent US20260297060A1, “COMPOUNDS FOR THE DEGRADATION OF MUTANT BRAF” (C4 THERAPEUTICS, INC., priority 2023, published 2026).
Read-outs that look alike come from different tables or passages of the source.

What was measured:
BRAF V600E = molecular target: T1, BRAF V600E (Homo sapiens, UniProt P15056+Q96SW2, V600E); experiment: BRAF V600E HiBiT Degradation Assay; assay type: cell-based
T1 construct: knock-in of the HiBiT tag to the endogenous BRAF V600E locus; host or cells: A375.10 (A375 clonal line, CRISPR HiBiT knock-in at the endogenous BRAF V600E locus)
Procedure, shortened: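 Endogenous HiBiT knock-in on BRAF V600E in A375 cells (clone A375.10); 11-point half-log series, top 10 μM, 2, 6 or 24 h at 37° C. Lytic HiBiT luminescence, background-subtracted, normalized to DMSO; 4-parameter fit gives DC50, Emax (residual protein) and IP (inflection point).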

A375-NRAS^Q61K cells = experiment: CTGlo Cell Viability Assay, A375-NRAS^Q61K (A375.11) cells, 96 hours; assay type: cell-based, human; conditions: A375.11 (A375-NRAS^Q61K) cells; for CTGlo A375.11 96 hours Emax / Emax: lowest % viability achieved
Procedure, shortened: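 Viability as CellTiter-Glo ATP luminescence after 96 h compound exposure at 37 °C; A375.11 (BRAF V600E/NRAS Q61K) cells at 250/well, top final concentration 10 μM in half-log steps. Signal was background-corrected and set relative to DMSO controls. A 4-parameter logistic fit gave GI50 (50% crossing) and Emax.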

[1] = A375.10 cells, BRAF V600E, 2 hours, inflection point, read-out: HiBiT-Degradation A375.10 BRAF 2 hours IP
[2] = A375.10 cells, BRAF V600E, 2 hours, read-out: HiBiT-Degradation A375.10 BRAF 2 hours DC50
[3] = A375.10 cells, BRAF V600E, 2 hours, residual protein remaining
[4] = A375.10 cells, BRAF V600E, 2 hours, residual protein remaining, read-out: HiBiT-Degradation A375.10 BRAF 2 hours Emax
[5] = A375.10 cells, HiBiT, BRAF V600E, 24 hours, read-out: HiBiT-Degradation A375.10 BRAF 24 hours DC50
[6] = A375.10 cells, HiBiT, BRAF V600E, 24 hours, read-out: HiBiT-Degradation A375.10 BRAF 24 hours Emax
[7] = A375.10 cells, HiBiT, BRAF V600E, 24 hours, read-out: HiBiT-Degradation A375.10 BRAF 24 hours IP

T1 sequence (P15056 whole entry V600E): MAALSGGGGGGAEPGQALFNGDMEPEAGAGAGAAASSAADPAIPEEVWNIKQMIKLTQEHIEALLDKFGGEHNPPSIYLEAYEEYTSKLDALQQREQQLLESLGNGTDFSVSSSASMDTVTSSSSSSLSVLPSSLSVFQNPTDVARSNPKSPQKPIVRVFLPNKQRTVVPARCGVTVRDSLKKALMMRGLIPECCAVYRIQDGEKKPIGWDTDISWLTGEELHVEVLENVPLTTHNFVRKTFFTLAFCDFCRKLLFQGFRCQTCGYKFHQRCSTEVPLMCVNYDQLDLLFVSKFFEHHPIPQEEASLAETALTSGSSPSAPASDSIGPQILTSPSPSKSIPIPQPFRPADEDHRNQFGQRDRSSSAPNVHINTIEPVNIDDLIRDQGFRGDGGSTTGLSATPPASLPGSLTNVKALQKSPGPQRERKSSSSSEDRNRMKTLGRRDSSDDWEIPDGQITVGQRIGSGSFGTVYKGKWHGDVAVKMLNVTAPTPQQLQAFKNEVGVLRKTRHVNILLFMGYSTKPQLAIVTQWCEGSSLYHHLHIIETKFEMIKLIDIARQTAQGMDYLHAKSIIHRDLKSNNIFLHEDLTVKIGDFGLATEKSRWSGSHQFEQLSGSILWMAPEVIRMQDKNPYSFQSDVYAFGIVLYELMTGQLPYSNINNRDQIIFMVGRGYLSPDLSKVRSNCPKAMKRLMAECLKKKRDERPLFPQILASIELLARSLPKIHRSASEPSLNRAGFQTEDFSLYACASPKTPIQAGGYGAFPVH
T1 sequence (Q96SW2 whole entry): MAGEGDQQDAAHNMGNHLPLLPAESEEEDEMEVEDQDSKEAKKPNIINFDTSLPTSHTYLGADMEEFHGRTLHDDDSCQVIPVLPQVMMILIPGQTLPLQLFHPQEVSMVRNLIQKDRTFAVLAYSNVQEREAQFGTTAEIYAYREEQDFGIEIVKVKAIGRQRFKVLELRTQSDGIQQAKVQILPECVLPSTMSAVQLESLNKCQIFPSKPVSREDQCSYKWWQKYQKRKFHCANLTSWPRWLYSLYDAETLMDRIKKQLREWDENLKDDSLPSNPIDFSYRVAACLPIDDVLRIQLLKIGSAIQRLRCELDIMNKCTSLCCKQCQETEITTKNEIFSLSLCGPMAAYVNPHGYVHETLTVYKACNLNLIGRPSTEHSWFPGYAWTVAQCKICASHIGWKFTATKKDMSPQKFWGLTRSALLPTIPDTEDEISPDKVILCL
T1 sequence (Q16531 whole entry partner): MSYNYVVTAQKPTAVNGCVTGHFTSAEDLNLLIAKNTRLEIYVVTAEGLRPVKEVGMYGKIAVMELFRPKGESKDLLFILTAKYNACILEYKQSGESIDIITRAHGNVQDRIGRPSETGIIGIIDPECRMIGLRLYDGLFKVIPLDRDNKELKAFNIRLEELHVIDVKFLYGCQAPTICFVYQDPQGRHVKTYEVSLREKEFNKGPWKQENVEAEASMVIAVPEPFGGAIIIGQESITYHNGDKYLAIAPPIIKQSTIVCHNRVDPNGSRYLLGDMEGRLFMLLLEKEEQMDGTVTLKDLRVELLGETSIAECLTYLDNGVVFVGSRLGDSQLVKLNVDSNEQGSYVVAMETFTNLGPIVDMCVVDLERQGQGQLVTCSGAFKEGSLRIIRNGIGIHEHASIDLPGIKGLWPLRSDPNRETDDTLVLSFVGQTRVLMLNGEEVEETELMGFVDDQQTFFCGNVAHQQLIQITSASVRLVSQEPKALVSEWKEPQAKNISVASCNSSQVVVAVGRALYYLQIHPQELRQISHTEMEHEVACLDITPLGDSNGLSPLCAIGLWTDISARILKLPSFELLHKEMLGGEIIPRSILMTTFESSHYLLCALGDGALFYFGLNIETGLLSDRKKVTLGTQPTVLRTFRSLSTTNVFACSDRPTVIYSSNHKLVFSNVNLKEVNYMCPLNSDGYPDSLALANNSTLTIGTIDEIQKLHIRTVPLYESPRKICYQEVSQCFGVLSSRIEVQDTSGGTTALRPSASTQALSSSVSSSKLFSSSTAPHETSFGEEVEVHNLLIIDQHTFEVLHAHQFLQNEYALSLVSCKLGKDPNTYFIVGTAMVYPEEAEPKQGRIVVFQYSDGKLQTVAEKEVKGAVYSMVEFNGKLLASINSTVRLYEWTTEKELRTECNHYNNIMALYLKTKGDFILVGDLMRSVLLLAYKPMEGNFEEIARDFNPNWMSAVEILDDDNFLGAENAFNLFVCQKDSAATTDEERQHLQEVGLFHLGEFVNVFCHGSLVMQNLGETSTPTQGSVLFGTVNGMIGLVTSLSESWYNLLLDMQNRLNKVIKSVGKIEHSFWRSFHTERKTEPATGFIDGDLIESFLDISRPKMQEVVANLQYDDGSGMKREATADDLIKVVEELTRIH

Structure (SMILES): CCN(C)S(=O)(=O)Nc1ccc(F)c(Oc2ccc3ncn(C4CCC5(CC4)CCN(C4CCC(c6cc7c(cc6F)c(N6CCC(=O)NC6=O)nn7C)CC4)CC5)c(=O)c3c2)c1C#N (single isomer, unassigned) [Compound 13, 9-[6-[2-cyano-3-[[ethyl(methyl)sulfamoyl]amino]-6-fluoro-phenoxy]-4-oxo-quinazolin-3-yl]-3-[4-[3-(2,4-dioxohexahydropyriimidin-1-yl)-5-fluoro-1-methyl-indazol-6-yl]cyclohexyl]-3-azaspiro[5.5]undecane]
- DC50 (BRAF V600E; [1]): < 1000 nM
- DC50 (BRAF V600E; [2]): < 1000 nM
- HiBiT-Degradation A375.10 BRAF 2 hours Emax (BRAF V600E; [3]): *** (<=50%)
- GI50 (A375-NRAS^Q61K cells): > 10000 nM
- CTGlo A375.11 96 hours Emax (A375-NRAS^Q61K cells): ** (<90% and >50%)

Structure (SMILES): CCN(C)S(=O)(=O)Nc1ccc(F)c(Oc2ccc3ncn([C@H]4COC5(CCN(C6C7COCC6CC(c6ccc(NC8CCC(=O)NC8=O)cc6F)C7)CC5)C4)c(=O)c3c2)c1C#N (stereo partly drawn) [Compound 194, (3R)-3-[6-[2-cyano-3-[[ethyl(methyl)sulfamoyl]amino]-6-fluoro-phenoxy]-4-oxo-quinazolin-3-yl]-8-[7-[4-[(2,6-dioxo-3-piperidyl)amino]-2-fluoro-phenyl]-3-oxabicyclo[3.3.1]nonan-9-yl]-1-oxa-8-azaspiro[4.5]decane]
- DC50 (BRAF V600E; [1]): < 1000 nM
- DC50 (BRAF V600E; [2]): > 10000 nM
- Emax (BRAF V600E; read-out: HiBiT-Degradation A375.10 BRAF 2 hours Emax): 50 to 90%
- GI50 (A375-NRAS^Q61K cells; Homo sapiens): > 10000 nM
- Emax (A375-NRAS^Q61K cells; Homo sapiens): 50 to 90%

Structure (SMILES): CCN(C)S(=O)(=O)Nc1ccc(F)c(C(=O)c2ccc3ncn(C4CC5(CCN(C6CC7(C6)CN(c6cc8c(cc6F)c(N6CCC(=O)NC6=O)nn8C)C7)CC5)C4)c(=O)c3c2)c1F (stereo not shown) [Compound 304, 3-[7-[2-[3-(2,4-dioxohexahydropyrimidin-1-yl)-5-fluoro-1-methyl-indazol-6-yl]-2-azaspiro[3.3]heptan-6-yl]-7-azaspiro[3.5]nonan-2-yl]-6-[3-[[ethyl(methyl)sulfamoyl]amino]-2,6-difluoro-benzoyl]-4-oxo-quinazoline]
- DC50 (BRAF V600E; [1]): < 1000 nM
- DC50 (BRAF V600E; [2]): 1000 to 10000 nM
- Emax (BRAF V600E; [4]): 50 to 90%
- DC50 (BRAF V600E; [5]): < 1000 nM
- Emax (BRAF V600E; [6]): < 50%
- DC50 (BRAF V600E; [7]): < 1000 nM
- GI50 (A375-NRAS^Q61K cells; Homo sapiens, 96 h): 1000 to 10000 nM
- Emax (A375-NRAS^Q61K cells; Homo sapiens, 96 h): 50 to 90%

Structure (SMILES): CCN(C)S(=O)(=O)Nc1ccc(F)c(Oc2ccc3ncc(CC4CCN(C5CCC(c6cc7c(cc6F)c(N6CCC(=O)NC6=O)nn7C)CC5)CC4)nc3c2)c1C#N (single isomer, unassigned) [Compound 149, 7-[2-cyano-3-[[ethyl(methyl)sulfamoyl]amino]-6-fluoro-phenoxy]-2-[[1-[4-[3-(2,4-dioxohexahydropyrimidin-1-yl)-5-fluoro-1-methyl-indazol-6-yl]cyclohexyl]-4-piperidyl]methyl]quinoxaline]
- DC50 (BRAF V600E; [1]): < 1000 nM
- DC50 (BRAF V600E; [2]): < 1000 nM
- Emax (BRAF V600E; [4]): < 50%
- GI50 (A375-NRAS^Q61K cells; Homo sapiens, 96 h): > 10000 nM
- Emax (A375-NRAS^Q61K cells; Homo sapiens, 96 h): 50 to 90%

Structure (SMILES): CCN(C)S(=O)(=O)Nc1ccc(F)c(Oc2ccc3ncn([C@H]4COC5(C4)CN(C4CC6(C4)CN(c4cc7c(cc4F)c(N4CCC(=O)NC4=O)nn7C)C6)C5)c(=O)c3c2)c1C#N [Compound 310, (7R)-7-[6-[2-cyano-3-[[ethyl(methyl)sulfamoyl]amino]-6-fluoro-phenoxy]-4-oxo-quinazolin-3-yl]-2-[2-[3-(2,4-dioxohexahydropyrimidin-1-yl)-5-fluoro-1-methyl-indazol-6-yl]-2-azaspiro[3.3]heptan-6-yl]-5-oxa-2-azaspiro[3.4]octane]
- DC50 (BRAF V600E; [1]): < 1000 nM
- DC50 (BRAF V600E; [2]): < 1000 nM
- Emax (BRAF V600E; [4]): < 50%
- DC50 (BRAF V600E; [5]): < 1000 nM
- Emax (BRAF V600E; [6]): < 50%
- DC50 (BRAF V600E; [7]): < 1000 nM
- GI50 (A375-NRAS^Q61K cells; Homo sapiens, 96 h): 1000 to 10000 nM
- Emax (A375-NRAS^Q61K cells; Homo sapiens, 96 h): 50 to 90%

Structure (SMILES): CCN(C)S(=O)(=O)Nc1ccc(F)c(Oc2ccc3ncn([C@H]4COC5(CCN(C6CC7(C6)CN(c6cc8c(cc6F)c(N6CCC(=O)NC6=O)nn8C)C7)CC5)C4)c(=O)c3c2)c1F [Compound 186, (3R)-8-[2-[3-(2,4-dioxohexahydropyrimidin-1-yl)-5-fluoro-1-methyl-indazol-6-yl]-2-azaspiro[3.3]heptan-6-yl]-3-[6-[3-[[ethyl(methyl)sulfamoyl]amino]-2,6-difluoro-phenoxy]-4-oxo-quinazolin-3-yl]-1-oxa-8-azaspiro[4.5]decane]
- Emax (BRAF V600E; [4]): 50 to 90%
- DC50 (BRAF V600E; read-out: HiBiT-Degradation A375.10 BRAF 2 hours DC50, A375.10 cells, BRAF V600E, 2 hours): < 1000 nM
- DC50 (BRAF V600E; read-out: HiBiT-Degradation A375.10 BRAF 2 hours IP, A375.10 cells, BRAF V600E, 2 hours, inflection point): < 1000 nM
- GI50 (A375-NRAS^Q61K cells; Homo sapiens, 96 h): 1000 to 10000 nM
- Emax (A375-NRAS^Q61K cells; Homo sapiens, 96 h): > 90%

Structure (SMILES): CCN(C)S(=O)(=O)Nc1ccc(F)c(Oc2ccc3ncc(CC4CCN(C5CCC(c6ccc(NC7CCC(=O)NC7=O)cc6F)CC5)CC4)nc3c2)c1C#N (single isomer, unassigned) [Compound 147, 7-[2-cyano-3-[[ethyl(methyl)sulfamoyl]amino]-6-fluoro-phenoxy]-2-[[1-[4-[4-[(2,6-dioxo-3-piperidyl)amino]-2-fluoro-phenyl]cyclohexyl]-4-piperidyl]methyl]quinoxaline]
- DC50 (BRAF V600E; [1]): < 1000 nM
- DC50 (BRAF V600E; [2]): > 10000 nM
- Emax (BRAF V600E; [4]): 50 to 90%
- GI50 (A375-NRAS^Q61K cells; Homo sapiens, 96 h): > 10000 nM
- Emax (A375-NRAS^Q61K cells; Homo sapiens, 96 h): 50 to 90%

Structure (SMILES): CCN(C)S(=O)(=O)Nc1ccc(F)c(Oc2ccc3ncn([C@@H]4CO[C@@]5(CCN(C6CCC(c7cc8c(cc7F)c(N7CCC(=O)NC7=O)nn8C)CC6)C5)C4)c(=O)c3c2)c1C#N (single isomer, unassigned) [Compound 287]
- HiBiT-Degradation A375.10 BRAF 2 hours Emax (BRAF V600E; [3]): *** (<=50%)
- DC50 (BRAF V600E; [5]): < 1000 nM
- Emax (BRAF V600E; [6]): < 50%
- DC50 (BRAF V600E; [7]): < 1000 nM
- GI50 (A375-NRAS^Q61K cells): < 1000 nM
- CTGlo A375.11 96 hours Emax (A375-NRAS^Q61K cells): *** (<=50%)

Structure (SMILES): CCN(C)S(=O)(=O)Nc1ccc(F)c(Oc2ccc3ncn([C@@H]4CO[C@]5(CCN(C6CCC(c7cc8c(cc7F)c(N7CCC(=O)NC7=O)nn8C)CC6)C5)C4)c(=O)c3c2)c1C#N (single isomer, unassigned) [Compound 291]
- DC50 (BRAF V600E; [1]): < 1000 nM
- DC50 (BRAF V600E; [2]): > 10000 nM
- HiBiT-Degradation A375.10 BRAF 2 hours Emax (BRAF V600E; [3]): ** (<90% and >50%)
- GI50 (A375-NRAS^Q61K cells): 1000 to 10000 nM
- CTGlo A375.11 96 hours Emax (A375-NRAS^Q61K cells): * (>=90%)

Structure (SMILES): CCN(C)S(=O)(=O)Nc1ccc(F)c(Oc2ccc3ncn(C4CC5(CC(N6CC[C@@H](c7cc8c(cc7F)c(N7CCC(=O)NC7=O)nn8C)C(F)(F)C6)C5)C4)c(=O)c3c2)c1C#N (stereo partly drawn) [Compound 227, 6-[2-cyano-3-[[ethyl(methyl)sulfamoyl]amino]-6-fluoro-phenoxy]-3-[2-[(4S)-4-[3-(2,4-dioxohexahydropyrimidin-1-yl)-5-fluoro-1-methyl-indazol-6-yl]-3,3-difluoro-1-piperidyl]spiro[3.3]heptan-6-yl]-4-oxo-quinazoline]
- DC50 (BRAF V600E; [1]): < 1000 nM
- DC50 (BRAF V600E; [2]): < 1000 nM
- Emax (BRAF V600E; [4]): < 50%
- GI50 (A375-NRAS^Q61K cells; Homo sapiens, 96 h): 1000 to 10000 nM
- Emax (A375-NRAS^Q61K cells; Homo sapiens, 96 h): 50 to 90%

Structure (SMILES): Cn1nc(N2CCC(=O)NC2=O)c2cc(F)c(N3CC4(CC(N5CCC6(CC5)C[C@@H](n5cnc7ccc(Oc8c(F)ccc(NS(=O)(=O)N9C[C@H]%10C[C@H]%10C9)c8C#N)cc7c5=O)CO6)C4)C3)cc21 [Compound 241, (1S,5R)-N-[2-cyano-3-[3-[(3R)-8-[2-[3-(2,4-dioxohexahydropyrimidin-1-yl)-5-fluoro-1-methyl-indazol-6-yl]-2-azaspiro[3.3]heptan-6-yl]-1-oxa-8-azaspiro[4.5]decan-3-yl]-4-oxo-quinazolin-6-yl]oxy-4-fluoro-phenyl]-3-azabicyclo[3.1.0]hexane-3-sulfonamide]
- DC50 (BRAF V600E; [1]): < 1000 nM
- DC50 (BRAF V600E; [2]): < 1000 nM
- Emax (BRAF V600E; [4]): < 50%
- GI50 (A375-NRAS^Q61K cells; Homo sapiens, 96 h): 1000 to 10000 nM
- Emax (A375-NRAS^Q61K cells; Homo sapiens, 96 h): 50 to 90%

Structure (SMILES): CCN(C)S(=O)(=O)Nc1ccc(F)c(Oc2ccc3ncn([C@H]4COC5(C4)CN(C4CCC(c6cc7c(cc6F)c(N6CCC(=O)NC6=O)nn7C)CC4)C5)c(=O)c3c2)c1C#N (single isomer, unassigned) [Compound 236]
- DC50 (BRAF V600E; [1]): < 1000 nM
- DC50 (BRAF V600E; [2]): < 1000 nM
- HiBiT-Degradation A375.10 BRAF 2 hours Emax (BRAF V600E; [3]): *** (<=50%)
- GI50 (A375-NRAS^Q61K cells): 1000 to 10000 nM
- CTGlo A375.11 96 hours Emax (A375-NRAS^Q61K cells): ** (<90% and >50%)
